Test results from patent EP0207497A2, “Quinolonecarboxylic acid derivative and process for its preparation” (KYORIN PHARMACEUTICAL CO., LTD., priority 1985, dated 1987).
Like-named read-outs stand apart in the source and are kept apart here.

Legend:
Format in all cases: cell-based
[1] = tested on: Bacillus subtilis PCI 219; experiment: Antibacterial spectrum, MIC determination (method of Japan Society of Chemotherapy); conditions: PCI219
[2] = tested on: Staphylococcus aureus 209 P; experiment: as above
[3] = tested on: S. aureus Smith; experiment: as above; conditions: Staphylococcus aureus
[4] = tested on: S. aureus IID 670 (Terajima); experiment: as above; conditions: Staphylococcus aureus, IID670
[5] = tested on: S. epidermidis IID 866; experiment: as above; conditions: Staphylococcus epidermidis, IID866
[6] = tested on: Streptococcus pyogenes (S-8); experiment: as above
[7] = tested on: S. pyogenes IID 692; experiment: as above; conditions: Streptococcus pyogenes, IID692; S. pyogenes IID 692, Gram +, 10^6 cells/ml
[8] = tested on: S. pneumoniae IID 552; experiment: as above; conditions: Streptococcus pneumoniae, IID552; S. pneumoniae IID 552, Gram +, 10^6 cells/ml
[9] = tested on: E. faecalis IID 682; experiment: as above; conditions: Enterococcus faecalis, IID682; E. faecalis IID 682, Gram +, 10^6 cells/ml
[10] = tested on: Escherichia coli NIHJ JC-2; experiment: as above; conditions: NIHJJC2; Escherichia coli NIHJ JC-2, Gram -, 10^6 cells/ml
[11] = tested on: E. coli ATCC 10536; experiment: as above; conditions: Escherichia coli, ATCC10536
[12] = tested on: E. coli ML 4707; experiment: as above; conditions: Escherichia coli, ML4707
[13] = tested on: Proteus vulgaris IFO 3167; experiment: as above; conditions: IFO3167
[14] = tested on: P. mirabilis IID 994; experiment: as above; conditions: Proteus mirabilis, IID994
[15] = tested on: Morganella morganii IID 602; experiment: as above; conditions: IID602; Morganella morganii IID 602, Gram -, 10^6 cells/ml
[16] = tested on: Klebsiella pneumoniae KY(GN)6445; experiment: as above
[17] = tested on: K. pneumoniae 1-220S; experiment: as above; conditions: Klebsiella pneumoniae, 1220S
[18] = tested on: Enterobacter cloacae IID 977; experiment: as above; conditions: IID977; Enterobacter cloacae IID 977, Gram -, 10^6 cells/ml
[19] = tested on: Citrobacter freundii IID 976; experiment: as above; conditions: IID976
[20] = tested on: Serratia marcescens IID 618; experiment: as above; conditions: IID618
[21] = tested on: Shigella sonnei IID 969; experiment: as above; conditions: IID969; Shigella sonnei IID 969, Gram -, 10^6 cells/ml
Experimental: Minimal inhibitory concentrations (MICs) were determined in accordance with the method recommended by Japan Society of Chemotherapy.

[22] = tested on: Salmonella enteritidis IID 604; experiment: as above; conditions: Salmonella enterica
[23] = tested on: Pseudomonas aeruginosa V-1; experiment: as above; conditions: V1; Pseudomonas aeruginosa V-1, Gram -, 10^6 cells/ml
[24] = tested on: P. aeruginosa IFO 12689; experiment: as above; conditions: Pseudomonas aeruginosa, IFO12689; P. aeruginosa IFO 12689, Gram -, 10^6 cells/ml
[25] = tested on: P. aeruginosa IID 1210; experiment: as above; conditions: Pseudomonas aeruginosa, IID1210; P. aeruginosa IID 1210, Gram -, 10^6 cells/ml
[26] = tested on: P. cepacia GIFU 518; experiment: as above; conditions: Burkholderia cepacia, GIFU518
[27] = tested on: P. maltophilia GIFU 2491; experiment: as above; conditions: Stenotrophomonas maltophilia, GIFU2491
[28] = tested on: Yersinia enterocolitica IID 981; experiment: as above; conditions: IID981
[29] = tested on: Acinetobacter anitratus IID 876; experiment: as above; conditions: Acinetobacter calcoaceticus, IID876
[30] = tested on: Alcaligenes faecalis 0114002; experiment: as above; conditions: Alcaligenes faecalis 0114002, Gram -, 10^6 cells/ml
[31] = tested on: Bacteroides fragilis GM 7000; experiment: as above; conditions: GM7000
[32] = tested on: B. fragilis 0558; experiment: as above; conditions: Bacteroides fragilis
[33] = tested on: B. fragilis 25285; experiment: as above; conditions: Bacteroides fragilis
[34] = tested on: B. distasonis 8503; experiment: as above; conditions: Parabacteroides distasonis
[35] = tested on: B. thetaiotaomicron (0661); experiment: as above; conditions: Bacteroides thetaiotaomicron
[36] = tested on: B. vulgatus KYA 29327; experiment: as above; conditions: Phocaeicola vulgatus, KYA29327
[37] = tested on: Fusobacterium mortiferum 4249; experiment: as above
[38] = tested on: F. necrophorum S-45; experiment: as above; conditions: Fusobacterium necrophorum, S45; F. necrophorum S-45, Gram -, 10^6 cells/ml
[39] = tested on: F. varium KYA 8501; experiment: as above; conditions: Fusobacterium varium, KYA8501; F. varium KYA 8501, Gram -, 10^6 cells/ml
[40] = tested on: Eubacterium lentum GAI 5242; experiment: as above; conditions: Eggerthella lenta, GAI5242; Eubacterium lentum GAI 5242, Gram +, 10^6 cells/ml
[41] = tested on: Propionibacterium acens 11828; experiment: as above
[42] = tested on: Peptococcus magnus KY 017; experiment: as above; conditions: Finegoldia magna, KY017
[43] = tested on: Clostridium difficile I-E; experiment: as above; conditions: Clostridioides difficile, Gram +, 10^6 cells/ml
[44] = tested on: C. perfringens KYA 13123; experiment: microbe, parasite or virus in culture; conditions: Clostridium perfringens, KYA13123
[45] = tested on: C. ramosum; experiment: Antibacterial spectrum, MIC determination (method of Japan Society of Chemotherapy); conditions: Thomasclavelia ramosa
[46] = tested on: Peptostreptococcus anaerobius KYA 27337; experiment: as above; conditions: KYA27337
[47] = tested on: Pst. micros UPI 5464-1; experiment: as above; conditions: Parvimonas micra, UPI54641; Pst. micros UPI 5464-1, Gram +, 10^6 cells/ml
[48] = tested on: Veillonella parvula KYA 10790; experiment: as above; conditions: KYA10790; Veillonella parvula KYA 10790, Gram -, 10^6 cells/ml

Measured: MIC

NC1CCN(c2c(F)cc3c(=O)c(C(=O)O)cn(C4CC4)c3c2Br)C1 (stereo not shown) [Exp. 1, 7-(3-Amino-1-pyrrolidinyl)-8-bromo-1-cyclopropyl-6-fluoro-1,4-dihydro-4-oxo-3-quinolinecarboxylic acid]
0.0063 mg/L: [10] | [21]
1.56 mg/L: [41]; Propionibacterium acens 11828, Gram +, 10^6 cells/ml, read-out: MIC | [45]; C. ramosum, Gram +, 10^6 cells/ml, read-out: MIC
0.78 mg/L: [25] | [39] | [43]
0.0125 mg/L: [11]; E. coli ATCC 10536, Gram -, 10^6 cells/ml, read-out: MIC | [12]; E. coli ML 4707, Gram -, 10^6 cells/ml, read-out: MIC | [13]; Proteus vulgaris IFO 3167, Gram -, 10^6 cells/ml, read-out: MIC | [14]; P. mirabilis IID 994, Gram -, 10^6 cells/ml, read-out: MIC | [16]; Klebsiella pneumoniae KY(GN)6445, Gram -, 10^6 cells/ml, read-out: MIC
0.05 mg/L: [2]; Staphylococcus aureus 209 P, Gram +, 10^6 cells/ml, read-out: MIC | [3]; S. aureus Smith, Gram +, 10^6 cells/ml, read-out: MIC | [4]; S. aureus IID 670 (Terajima), Gram +, 10^6 cells/ml, read-out: MIC | [15] | [20]; Serratia marcescens IID 618, Gram -, 10^6 cells/ml, read-out: MIC | [27]; P. maltophilia GIFU 2491, Gram -, 10^6 cells/ml, read-out: MIC | [29]; Acinetobacter anitratus IID 876, Gram -, 10^6 cells/ml, read-out: MIC
0.2 mg/L: [7] | [23] | [35]; B. thetaiotaomicron (0661), Gram -, 10^6 cells/ml, read-out: MIC | [36]; B. vulgatus KYA 29327, Gram -, 10^6 cells/ml, read-out: MIC | [37]; Fusobacterium mortiferum 4249, Gram -, 10^6 cells/ml, read-out: MIC | [38] | [44] | [46]; Peptostreptococcus anaerobius KYA 27337, Gram +, 10^6 cells/ml, read-out: MIC
0.025 mg/L: [1]; Bacillus subtilis PCI 219, Gram +, 10^6 cells/ml, read-out: MIC | [17]; K. pneumoniae 1-220S, Gram -, 10^6 cells/ml, read-out: MIC | [18] | [19]; Citrobacter freundii IID 976, Gram -, 10^6 cells/ml, read-out: MIC | [22]; Salmonella enteritidis IID 604, Gram -, 10^6 cells/ml, read-out: MIC | [28]; Yersinia enterocolitica IID 981, Gram -, 10^6 cells/ml, read-out: MIC
0.1 mg/L: [5]; S. epidermidis IID 866, Gram +, 10^6 cells/ml, read-out: MIC | [6]; Streptococcus pyogenes (S-8), Gram +, 10^6 cells/ml, read-out: MIC | [8] | [9] | [30] | [31]; Bacteroides fragilis GM 7000, Gram -, 10^6 cells/ml, read-out: MIC | [32]; B. fragilis 0558, Gram -, 10^6 cells/ml, read-out: MIC | [33]; B. fragilis 25285, Gram -, 10^6 cells/ml, read-out: MIC | [40] | [42]; Peptococcus magnus KY 017, Gram +, 10^6 cells/ml, read-out: MIC | [47] | [48]
0.39 mg/L: [24] | [26]; P. cepacia GIFU 518, Gram -, 10^6 cells/ml, read-out: MIC | [34]; B. distasonis 8503, Gram -, 10^6 cells/ml, read-out: MIC

O=C(O)c1cn(C2CC2)c2cc(N3CCNCC3)c(F)cc2c1=O [CPFX, ciprofloxacin, reference compound]
0.39 mg/L: [3] | [6]; Streptococcus pyogenes | [26] | [27] | [30] | [42] | [44]
0.05 mg/L: [1]; Bacillus subtilis
0.025 mg/L: [15] | [17] | [20]; Serratia marcescens | [22] | [28]; Yersinia enterocolitica
6.25 mg/L: [31]; Bacteroides fragilis | [34]; 8503
12.5 mg/L: [41]; Propionibacterium, 11828 | [45]
0.1 mg/L: [29]
> 12.5 mg/L: [35] | [36]
1.56 mg/L: [37]; Fusobacterium mortiferum, 4249 | [46]; Peptostreptococcus anaerobius
0.2 mg/L: [2]; Staphylococcus aureus, 209P | [4] | [5] | [47] | [48]
3.13 mg/L: [32]; 0558 | [33]; 25285
0.0125 mg/L: [11] | [12] | [13]; Proteus vulgaris | [14] | [16]; Klebsiella pneumoniae
0.0063 mg/L: [10] | [19]; Citrobacter freundii | [21]
